The values that follow come from US20260049075A1, “CYTOTOXIC IMIDAZO[1,2-A]PYRIDINE COMPOUNDS AND THEIR USE IN THERAPY” (MyricX Pharma Limited, priority 2022, published 2026).

In data set [1] the target is T1, human NMT1 (HsNMT1) (Homo sapiens, UniProt P30419).
T1 sequence (P30419 1-496): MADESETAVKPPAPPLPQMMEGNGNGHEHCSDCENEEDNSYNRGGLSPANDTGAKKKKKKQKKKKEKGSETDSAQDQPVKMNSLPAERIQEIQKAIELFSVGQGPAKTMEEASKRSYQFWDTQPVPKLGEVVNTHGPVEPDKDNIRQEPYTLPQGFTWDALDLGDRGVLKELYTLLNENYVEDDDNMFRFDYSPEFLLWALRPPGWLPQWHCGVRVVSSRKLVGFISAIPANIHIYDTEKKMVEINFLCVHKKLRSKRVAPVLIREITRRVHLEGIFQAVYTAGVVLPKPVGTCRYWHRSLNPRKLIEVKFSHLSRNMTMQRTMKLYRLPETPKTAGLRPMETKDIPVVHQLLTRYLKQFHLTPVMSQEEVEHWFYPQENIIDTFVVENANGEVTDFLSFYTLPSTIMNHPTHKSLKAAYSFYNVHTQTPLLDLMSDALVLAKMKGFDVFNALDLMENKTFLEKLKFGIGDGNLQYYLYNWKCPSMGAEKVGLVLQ
Nature of the data set: HsNMT1 sensitive fluorescence-based assay (CoA detection with CPM). In kind it is biochemical.

Data set [2] relates to DOHH-2 tumor cells. Put plainly: Subcutaneous xenograft DOHH-2 Lymphoma Model. In kind it is in vivo, mouse. Particulars: CB17/SCID mice. How it is done: The in vivo efficacy of certain Example compounds was assessed in a subcutaneous xenograft DOHH-2 Lymphoma Model using 10 female 6-8 week old CB17/SCID Mice. Each mouse was inoculated subcutaneously at the right front region with DOHH-2 tumor cells (5×10^6) in 0.1 ml of PBS mixed with matrigel (1:1 PBS:matrigel) for tumor development. The test compound administration started once the mean tumor size reached approximately 100-150 mm^3. Compounds were administered either IP (vehicle 10 mM sodium phosphate+0.2% Tween-80 (pH7.4) or orally (vehicle 15 Na2HPO4 buffer (10 mM) (pH 4.5)+0.2% tween 80). Tumor volumes were measured in two dimensions using a caliper, and the volume expressed in mm^3 using the formula: V=(L×W×W)/2, where V is tumor volume, L is tumor length (the longest tumor dimension) and W is tumor width (the longest tumor dimension perpendicular to L). Mice were dosed with Example 21 orally (12.5 or 25 mg/kg) once a day for 9 consecutive days (FIG. 3). Example 5 was dosed intraperitoneally (7 or 20 mg/kg) in a cycle consisting of administration QD for three days followed by a three day no-dosing period followed by QD dosing for a further three days (FIG. 4). Example 12 was dosed intraperitoneally (0.7 or 2 mg/kg) in a cycle consisting of administration QD for three days followed by a three day no-dosing period followed by QD dosing for a further three days (FIG. 5). In a separate study Example 12 was dosed at […] in a cycle consisting of administration QD for two days followed by either four or six day no-dosing period, and this cycle was repeated three times (FIG. 6).
The protocol and any amendment(s) or procedures involving the care and use of animals in this study were reviewed and approved by the Institutional Animal Care and Use Committee (IACUC) of CrownBio prior to execution. During the study, the care and use of animals was conducted in accordance with the regulations of the Association for Assessment and Accreditation of Laboratory Animal Care (AAALAC).

The subject of data set [3] is BT474 breast cancer cells. Nature of the data set: Orthotopic breast cancer xenograft model (BT474), tumour volume. In kind it is in vivo, mouse. Particulars: 2.0 mg/kg IV, 2 days dosing then 5 day holiday; stopped at day 13.
Description: NOD/SCID mice were implanted with estrogen pellets (17β-estradiol, 60 day release, 0.36 mg) subcutaneously in the right flank one day before the tumour inoculation. On day −8 each mouse was then injected in the right mammary fat pad with 1×10^7 viable BT474 breast cancer cells resuspended in 0.2 mL of Phosphate Buffered Saline mixed with matrigel (1:1). Mice were assigned to treatment groups when tumour volumes averaged 149.78 mm^3 on study day 0. […] The study was terminated on Study Day 35. […] Each group was comprised of 10 mice. Tumour volumes in mice were measured three times per week and tumour volume was calculated using the formula 0.5 (L×W^2). […] Statistical analyses were carried out on tumour readings for Groups 1, 2, 3, 4 and 5 up to Study Day 23 (after this point >50% of the animals within one of the study groups were lost; Group 2) using two-way ANOVA, or a Mixed-Effects model was fitted when values were missing from groups (PRISM GraphPad Software Inc.). Statistical analysis of Group 6 was conducted until day 12 (at this point the study was terminated due to the significant loss of observed body weight). Using a ROUT outlier analysis in GraphPad Prism, one mouse in Group 5 was identified as an outlier across all timepoints (at the 5% confidence level) and has therefore been excluded from analysis. […]
Data set [4] can be described thus: Body weight in BT474 xenograft study. The class given is in vivo, mouse. The conditions noted are these: 2 mg/kg IV, 2 days dosing then 5 day holiday; terminated early. Here is the method:
During the study, body weights were measured three times weekly for all animals. Animals were given Diet Gel for the entire duration on the study.

The test system of data set [5] is LNCaP tumour cells. Put plainly: LNCaP prostate cancer xenograft model, tumour volume. In kind it is in vivo, mouse. Particulars: for Day 28 tumour volume (mm^3, mean ± SEM) / Tumour growth inhibition (TGI, %): IV, Q7D (x3); for Day 28 tumour volume (mm^3, mean ± SEM): NOD SCID mice; for Tumour growth inhibition (TGI, %): day 28.
Excerpt: A total of 84 male NOD SCID mice aged 5-8 weeks and weighing 25-30 g were used for the study.
The test system of data set [6] is VcaP tumour cells. Put plainly: VcaP prostate cancer xenograft model, tumour volume. In kind it is in vivo, mouse. The conditions noted are these: for ΔTGI (Study Day 17): CB17/SCID mice. From the text: All mice received two doses of test agent, on Study Day 1 and Study Day 8. The study was terminated on Study Day 30.
The subject of data set [7] is JIMT-1 tumour cells. Put plainly: JIMT-1 breast cancer xenograft model, tumour volume. In kind it is in vivo, mouse. Here is the method:
80 mice were assigned to 8 treatment groups when tumour volumes averaged ˜160.66 mm^3 on Study Day 0. Dosing commenced the following day and all animals were dosed intravenously with ADC Example 3, sacituzumab govitecan or unconjugated sacituzumab. The study was terminated on the Study Day 60.

[8] abbreviates: intraperitoneal dosing, Example 5 7 or 20 mg/kg, Example 12 0.7 or 2 mg/kg, QD cycles.

For the molecule `CNCc1cnc2ccc(-c3ccc(F)c(F)c3OCCc3c(C(O)C(C)(C)C)nn(C)c3C)cn12` (single isomer, unassigned) [Example 12, 1-(4-(2-(2,3-difluoro-6-(3-((methylamino)methyl)imidazo[1,2-a]pyridin-6-yl)phenoxy)ethyl)-1,5-dimethyl-1H-pyrazol-3-yl)-2,2-dimethylpropan-1-ol], half-maximal inhibition in data set [1] (IC50) required 2.1 nM. For the same molecule, the “tumour volume compared to vehicle” value in data set [2] (setting [8]) is on record as “significant reduction in tumour volume or reduced growth in tumour volume”. The tumour size entry in data set [3] is “reduced tumour size”. Moreover, the body weights entry in data set [4] is reported as “decreased significantly”.
On to `CNCc1cnc2ccc(-c3ccc(F)cc3OCCc3c(C(C)O)nn(C)c3C)cn12` (stereo not shown) [Example 1, 1-{4-[2-(5-fluoro-2-{3-[(methylamino)methyl]imidazo[1,2-a]pyridin-6-yl}phenoxy)ethyl]-1,5-dimethyl-1H-pyrazol-3-yl}ethan-1-ol], for which the IC50 (usually the concentration that inhibits the measured activity by half) in data set [1] was 2.2 nM. This counts as single-digit nanomolar.
On to `CNCc1cnc2ccc(-c3ccc(F)c(F)c3OCCc3c(C(C)O)nn(C)c3C)cn12` (stereo not shown) [Example 5, 1-{4-[2-(2,3-difluoro-6-{3-[(methylamino)methyl]imidazo[1,2-a]pyridin-6-yl}phenoxy)ethyl]-1,5-dimethyl-1H-pyrazol-3-yl}ethan-1-ol], for which the IC50 in data set [1] turned out to be 2.2 nM. Also, the “tumour volume compared to vehicle” value in data set [2] (setting [8]) is “significant reduction in tumour volume or reduced growth in tumour volume”.
Turning to `Cc1c(CCOc2cc(F)ccc2-c2ccc3ncc(CCN)n3c2)c(C(C)O)nn1C` (stereo not shown) [Example 7, 1-(4-(2-(2-(3-(2-aminoethyl)imidazo[1,2-a]pyridin-6-yl)-5-fluorophenoxy)ethyl)-1,5-dimethyl-1H-pyrazol-3-yl)ethan-1-ol], in data set [1], it took 9 nM to reach half-maximal inhibition (IC50).
Same read-out and setting: the same measure for `Cc1c(CCOc2c(-c3ccc4ncc(CN)n4c3)ccc(F)c2F)c(C(O)C(C)(C)C)nn1C` (stereo not shown) [Example 17, 1-(4-(2-(6-(3-(aminomethyl)imidazo[1,2-a]pyridin-6-yl)-2,3-difluorophenoxy)ethyl)-1,5-dimethyl-1H-pyrazol-3-yl)-2,2-dimethylpropan-1-ol]: 2 nM; for `Cc1c(CCOc2c(-c3ccc4ncc(CN)n4c3)ccc(F)c2F)c(C(C)(C)O)nn1C` [Example 20, 2-[4-(2-{6-[3-(aminomethyl)imidazo[1,2-a]pyridin-6-yl]-2,3-difluorophenoxy}ethyl)-1,5-dimethyl-1H-pyrazol-3-yl]propan-2-ol]: 2 nM.
For the molecule `CNCc1cnc2ccc(-c3ccc(F)c(F)c3OCCc3c(C(C)(C)O)nn(C)c3C)cn12` [Example 21, 2-(4-(2-(2,3-difluoro-6-(3-((methylamino)methyl)imidazo[1,2-a]pyridin-6-yl)phenoxy)ethyl)-1,5-dimethyl-1H-pyrazol-3-yl)propan-2-ol], the “tumour volume compared to vehicle” value in data set [2] (oral dosing 12.5 or 25 mg/kg once a day for 9 days) is given as “significant reduction in tumour volume or reduced growth in tumour volume”.
For the molecule `CCNCc1cnc2ccc(-c3ccc(F)cc3OCCc3c(C(C)(C)O)nn(C)c3C)cn12` [Example 22, 2-{4-[2-(2-{3-[(ethylamino)methyl]imidazo[1,2-a]pyridin-6-yl}-5-fluorophenoxy)ethyl]-1,5-dimethyl-1H-pyrazol-3-yl}propan-2-ol], half-maximal inhibition in data set [1] (IC50) was put at 3 nM.
For `CNCc1cnc2ccc(-c3ccc(F)c(F)c3OCCc3c(C(O)C(C)C)nn(C)c3C)cn12` (stereo not shown) [Example 25, 1-{4-[2-(2,3-difluoro-6-{3-[(methylamino)methyl]imidazo[1,2-a]pyridin-6-yl}phenoxy)ethyl]-1,5-dimethyl-1H-pyrazol-3-yl}-2-methylpropan-1-ol], 2 nM corresponded to half-maximal inhibition in data set [1] (IC50).
For the molecule “ifinatamab: antibody binding CD276 (B7-H3); heavy chain SEQ ID NO: 6, light chain SEQ ID NO: 5”, the “effect on LNCaP tumour volume compared to vehicle” value in data set [5] (5 mg/kg) and in data set [5] (10 mg/kg) was “no significant effect” throughout. Besides, the entries for the “Day 28 tumour volume (mm^3, mean ± SEM)” value in data set [5] (5 mg/kg) and in data set [5] (10 mg/kg) were 551.4 ± 73.1 mm^3 and 666.56 ± 103.2 mm^3, respectively. Further, the “Tumour growth inhibition (TGI, %)” value in data set [5] (5 mg/kg) amounted to 30.6%; in data set [5] (10 mg/kg), 13.0%. For the same molecule, the “tumour volume compared to vehicle alone” value in data set [6] (2.5 mg/kg) and in data set [6] (5 mg/kg) was “no significant difference” in each case. Besides, the “ΔTGI (Study Day 17)” value was found to be 8.47% in data set [6] (2.5 mg/kg IV QW x 2 weeks) and 12.44% in data set [6] (5 mg/kg IV QW x 2 weeks).
In the case of sacituzumab, the “tumour volume compared to vehicle alone” value is reported as “no significant difference” in data set [7] (2.5 mg/kg) and “significant decrease in tumour volume” in data set [7] (5 mg/kg).
For “sacituzumab govitecan [reference compound]”, in that order: “significant decrease in tumour volume” and “significant decrease in tumour volume”.

B1: ifinatamab-DXd (conjugate, chains of the INN, looked up)
VH: QVQLVQSGAEVKKPGSSVKVSCKASGYTFTNYVMHWVRQAPGQGLEWMGYINPYNDDVKYNEKFKGRVTITADESTSTAYMELSSLRSEDTAVYYCARWGYYGSPLYYFDYWGQGTLVTVSS
VL: EIVLTQSPATLSLSPGERATLSCRASSRLIYMHWYQQKPGQAPRPLIYATSNLASGIPARFSGSGSGTDFTLTISSLEPEDFAVYYCQQWNSNPPTFGQGTKVEIK
modifications: deruxtecan (DXd) payload
Regarding B1, the entries for the “effect on LNCaP tumour volume compared to vehicle” value in data set [5] (5 mg/kg) and in data set [5] (10 mg/kg) were “slowed the growth of LNCaP tumours to a lesser extent” and “significantly reduced the mean volume”, respectively. The “Day 28 tumour volume (mm^3, mean ± SEM)” value in data set [5] (5 mg/kg) worked out at 364.6 ± 51.7 mm^3; in data set [5] (10 mg/kg) it was 259.5 ± 50.3 mm^3. Further, the “Tumour growth inhibition (TGI, %)” value was 58.8% in data set [5] (5 mg/kg) and 75.0% in data set [5] (10 mg/kg). In addition, the “tumour volume compared to vehicle alone” value in data set [6] (2.5 mg/kg) is “no significant difference”; in data set [6] (5 mg/kg), “significantly higher tumour volume”. The “ΔTGI (Study Day 17)” value in data set [6] (2.5 mg/kg IV QW x 2 weeks) is on record as 5.24%; in data set [6] (5 mg/kg IV QW x 2 weeks) it was 2.86%.
